Calls of active or inactive are those of the source. The calls are words filed in the database; no cut-off is given here.
How the values were obtained:
HT-29 = assay: Antiproliferative activity against human HT-29 cells after 48 hrs by MTT assay; format: functional; conditions: HT-29, 48 h
HepG2 = assay: Antiproliferative activity against human HepG2 cells after 48 hrs by MTT assay; format: functional; conditions: HepG2, 48 h
MDA-MB-231 = assay: Antiproliferative activity against human MDA-MB-231 cells after 48 hrs by MTT assay; format: functional; conditions: MDA-MB-231, 48 h
HeLa [1] = assay: Antiproliferative activity against human HeLa cells after 48 hrs by MTT assay; format: functional
A2780 = assay: Antiproliferative activity against human A2780 cells after 48 hrs by MTT assay; format: functional; conditions: A2780, 48 h
A549 = assay: Antiproliferative activity against human A549 cells after 48 hrs by MTT assay; format: functional; conditions: A549, 48 h
HeLa [2] = assay: Antitumor activity against human HeLa cells xenografted in nude mouse assessed as tumor growth inhibition at 10 mg/kg, iv administered every other day up to 20 days relative to control; format: functional; conditions: 480 h, read-out: TGI
HeLa [3] = assay: Antitumor activity against human HeLa cells xenografted in nude mouse assessed as tumor weight at 10 mg/kg, iv administered every other day up to 20 days (reference value: 1.014 +/- 0.116g); format: functional
HeLa [4] = assay: Induction of apoptosis in human HeLa cells assessed as necrotic cells at 0.05 uM after 24 hrs by Annexin V-FITC/propidium iodide staining-based flow cytometric analysis (reference value: 0.05%); format: functional
HeLa [5] = assay: Induction of apoptosis in human HeLa cells assessed as late apoptotic cells at 0.05 uM after 24 hrs by Annexin V-FITC/propidium iodide staining-based flow cytometric analysis (reference value: 3.51%); format: functional
HeLa [6] = assay: Induction of apoptosis in human HeLa cells assessed as viable cells at 0.05 uM after 24 hrs by Annexin V-FITC/propidium iodide staining-based flow cytometric analysis (reference value: 92.8%); format: functional; conditions: read-out: Activity
HeLa [7] = assay: Induction of apoptosis in human HeLa cells assessed as early apoptotic cells at 0.05 uM after 24 hrs by Annexin V-FITC/propidium iodide staining-based flow cytometric analysis (reference value: 3.65%); format: functional
Tubulin (Homo sapiens) [8] = biological target: T1, Tubulin (Homo sapiens) (UniProt P68371+Q9H4B7+P0DPH7+P68366+Q13509+Q71U36+P04350+Q3ZCM7+P07437+P68363+Q9BQE3+Q6PEY2+Q13885+Q9BVA1+Q9BUF5); assay: Induction of tubulin polymerization in human HeLa cells assessed as induction of long thick microtubule bundles at 0.05 after 12 hrs by DAPI staining-based confocal fluorescence microscopic analysis; format: cell-based
Tubulin (Homo sapiens) [9] = biological target: T1, Tubulin (Homo sapiens); assay: Induction of tubulin polymerization in human HeLa cells assessed as increase in density of microtubule polymerization at 0.05 after 12 hrs by DAPI staining-based confocal fluorescence microscopic analysis; format: cell-based
HeLa [10] = assay: Induction of apoptosis in human HeLa cells assessed as early apoptotic cells at 0.4 uM after 24 hrs by Annexin V-FITC/propidium iodide staining-based flow cytometric analysis (reference value: 3.65%); format: functional
HeLa [11] = assay: Cell cycle arrest in human HeLa cells assessed as accumulation of cells at G2/M phase at 0.1 to 2 uM after 6 to 24 hrs by propidium iodide staining-based flow cytometric analysis; format: functional
HeLa [12] = assay: Induction of apoptosis in human HeLa cells assessed as necrotic cells at 0.2 uM after 24 hrs by Annexin V-FITC/propidium iodide staining-based flow cytometric analysis (reference value: 0.05%); format: functional
HeLa [13] = assay: Inhibition of colony formation in human HeLa cells after 2 weeks by crystal violet staining-based assay; format: functional, cell-based
HeLa [14] = assay: Induction of apoptosis in human HeLa cells assessed as late apoptotic cells at 0.2 uM after 24 hrs by Annexin V-FITC/propidium iodide staining-based flow cytometric analysis (reference value: 3.51%); format: functional
HeLa [15] = assay: Induction of apoptosis in human HeLa cells assessed as viable cells at 0.2 uM after 24 hrs by Annexin V-FITC/propidium iodide staining-based flow cytometric analysis (reference value: 92.8%); format: functional; conditions: read-out: Activity
HeLa [16] = assay: Induction of apoptosis in human HeLa cells assessed as late apoptotic cells at 0.4 uM after 24 hrs by Annexin V-FITC/propidium iodide staining-based flow cytometric analysis (reference value: 3.51%); format: functional
HeLa [17] = assay: Induction of apoptosis in human HeLa cells assessed as viable cells at 0.4 uM after 24 hrs by Annexin V-FITC/propidium iodide staining-based flow cytometric analysis (reference value: 92.8%); format: functional; conditions: read-out: Activity
HeLa [18] = assay: Induction of apoptosis in human HeLa cells assessed as necrotic cells at 0.4 uM after 24 hrs by Annexin V-FITC/propidium iodide staining-based flow cytometric analysis (reference value: 0.05%); format: functional
HeLa [19] = assay: Induction of apoptosis in human HeLa cells assessed as early apoptotic cells at 0.2 uM after 24 hrs by Annexin V-FITC/propidium iodide staining-based flow cytometric analysis (reference value: 3.65%); format: functional

| GI50 (HT-29) [µM] | GI50 (HepG2) [µM] | GI50 (MDA-MB-231) [µM] | GI50 (HeLa [1]) [µM] | GI50 (A2780) [µM] | GI50 (A549) [µM] | SMILES | further results |
| --- | --- | --- | --- | --- | --- | --- | --- |
| > 10 | 7.49 | 10.6 | 3.49 | > 10 | 5.88 | COC(=O)N1N=C(c2ccccc2)CC1c1c(OC)cc(OC)cc1OC (stereo unspecified) |  |
| 3.5 | 9.81 | 14.5 | 7.52 | 4.96 | 8.93 | COC(=O)N1N=C(c2ccccc2)CC1c1ccc(OC)c(O)c1 (stereo unspecified) |  |
| 10.7 | 9.15 | 8.94 | 5.48 | 29.9 | 7.32 | COC(=O)N1N=C(c2ccccc2)CC1c1ccc(OC)c(OC)c1 (stereo unspecified) |  |
| 2.55 | 1.71 | 1.99 | 2.59 | 5 | 3.4 | COC(=O)N1N=C(c2ccc(OC)cc2)CC1c1cc(OC)c(OC)c(OC)c1 (stereo unspecified) |  |
| 6.77 | 7.82 | 7.15 | 1.14 | 2.52 | 8.57 | COC(=O)N1N=C(c2ccc(O)cc2)CC1c1cc(OC)c(OC)c(OC)c1 (stereo unspecified) |  |
| 9.2 | 4.21 | 9.9 | 3.39 | 11.4 | 3.93 | COC(=O)N1N=C(c2ccc(OC)c(OC)c2)CC1c1cc(OC)c(OC)c(OC)c1 (stereo unspecified) |  |
| 4.45 | 8.36 | 0.19 | 4.97 | 0.76 | 5.29 | CCOc1cccc(C2=NN(C(=O)OC)C(c3cc(OC)c(OC)c(OC)c3)C2)c1 (stereo unspecified) |  |
| 14.9 | 6.53 | > 10 | 2.47 | > 10 | 5.32 | COC(=O)N1N=C(c2ccccc2)CC1c1cc(OC)c(OC)cc1OC (stereo unspecified) |  |
| 8.92 | 5.95 | 5.61 | 8.23 | 6.72 | 6.68 | CCOC(=O)N1N=C(c2ccccc2)CC1c1cc(OC)c(OC)c(OC)c1 (stereo unspecified) |  |
| 0.14 | 1.24 | 0.11 | 0.16 | 1.54 | 0.34 | COC(=O)N1N=C(c2cccc(Cl)c2)CC1c1cc(OC)c(OC)c(OC)c1 (stereo unspecified) | Activity (HeLa [10]): 3.26%; Activity (HeLa [11]): Active; Activity (HeLa [12]): 0.481%; inhibition (HeLa [13]): Dose-dependent effect; Activity (HeLa [14]): 3.19%; viability at 0.2 µM (HeLa [15]): 93%; Activity (HeLa [16]): 3.13%; viability at 0.4 µM (HeLa [17]): 93.1%; Activity (HeLa [18]): 0.511%; Activity (HeLa [19]): 3.3% |
| 1.35 | 0.65 | 0.74 | 1.97 | 0.81 | 3.17 | COC(=O)N1N=C(c2cccc(O)c2)CC1c1cc(OC)c(OC)c(OC)c1 (stereo unspecified) |  |
| 6.26 | 3.95 | 1.08 | 2.18 | 2.77 | 2.88 | COC(=O)N1N=C(c2ccccc2)CC1c1cc(OC)c(OC)c(OC)c1 (stereo unspecified) |  |
| > 10 | > 10 | 14.4 | > 10 | 10.8 | > 10 | CCCOC(=O)N1N=C(c2ccccc2)CC1c1cc(OC)c(OC)c(OC)c1 (stereo unspecified) |  |
| > 10 | > 10 | > 10 | > 10 | > 10 | > 10 | COc1cc(C2CC(c3ccccc3)=NN2C(=O)OCc2ccccc2)cc(OC)c1OC (stereo unspecified) |  |
| 1.3 | 1.87 | 0.35 | 1.53 | 2.78 | 2.59 | COC(=O)N1N=C(c2cccc(OC)c2)CC1c1cc(OC)c(OC)c(OC)c1 (stereo unspecified) |  |

The remaining lines, values behind:

| SMILES | GI50 (HT-29) [µM] | GI50 (HepG2) [µM] | GI50 (MDA-MB-231) [µM] | GI50 (HeLa [1]) [µM] | GI50 (A2780) [µM] | GI50 (A549) [µM] | further results |
| --- | --- | --- | --- | --- | --- | --- | --- |
| CCCOC(=O)N1N=C(c2ccc(OC)cc2)CC1c1cc(OC)c(OC)c(OC)c1 (stereo unspecified) | 12.7 | > 10 | 20.4 | > 10 | 11.7 | > 10 |  |
| COc1ccc(/C=C\c2cc(OC)c(OC)c(OC)c2)cc1OP(=O)([O-])[O-].[Na+].[Na+] [FOSBRETABULIN DISODIUM] | 0.062 | 0.19 | 0.065 | 0.019 | 0.32 | 0.16 | inhibition in vivo at 10 mg/kg (HeLa [2]): 79.4%; Activity (HeLa [3]): 0.187 g; Activity (HeLa [4]): 0.6%; Activity (HeLa [5]): 5.08%; viability at 0.05 µM (HeLa [6]): 75.4%; Activity (HeLa [7]): 18.9% |
| CC(=O)O[C@H]1C(=O)[C@@]2(C)[C@H]([C@H](OC(=O)c3ccccc3)[C@]3(O)C[C@H](OC(=O)[C@H](O)[C@@H](NC(=O)c4ccccc4)c4ccccc4)C(C)=C1C3(C)C)[C@]1(OC(C)=O)CO[C@@H]1C[C@@H]2O |  |  |  |  |  |  | Activity (Tubulin (Homo sapiens) [8]): Active; Activity (Tubulin (Homo sapiens) [9]): Active |
| CCOC(=O)N1N=C(c2cccc(O)c2)CC1c1cc(OC)c(OC)c(OC)c1 (stereo unspecified) | 11.6 | 1.79 | 4.71 | 3.28 | 9.75 | 5.12 |  |
| COc1ccc(C2=NN(C(=O)OCc3ccccc3)C(c3cc(OC)c(OC)c(OC)c3)C2)cc1 (stereo unspecified) | > 10 | > 10 | > 10 | > 10 | > 10 | > 10 |  |
| COc1cc(C2CC(c3cccc(O)c3)=NN2C(=O)OCc2ccccc2)cc(OC)c1OC (stereo unspecified) | > 10 | > 10 | > 10 | > 10 | > 10 | > 10 |  |
| COC(=O)N1N=C(c2cc(OC)c(OC)c(OC)c2)CC1c1cc(OC)c(OC)c(OC)c1 (stereo unspecified) | 7.85 | 9.72 | 11.1 | 5.68 | 14 | 12.6 |  |
| COC(=O)N1N=C(c2ccccc2)CC1c1ccccc1 (stereo unspecified) | > 10 | > 10 | > 10 | > 10 | > 10 | > 10 |  |
| CCCOC(=O)N1N=C(c2cccc(O)c2)CC1c1cc(OC)c(OC)c(OC)c1 (stereo unspecified) | 15.2 | > 10 | 10 | > 10 | 11.1 | > 10 |  |
| COC(=O)N1N=C(c2ccccc2)CC1c1ccc(OC)cc1 (stereo unspecified) | > 10 | 12 | > 10 | 12.7 | > 10 | 15.3 |  |
| CCOC(=O)N1N=C(c2ccc(OC)cc2)CC1c1cc(OC)c(OC)c(OC)c1 (stereo unspecified) | 6.73 | 9.4 | 2.66 | 8.71 | 9.27 | 4.69 |  |
| COc1cccc(C2=NN(C(=O)OCc3ccccc3)C(c3cc(OC)c(OC)c(OC)c3)C2)c1 (stereo unspecified) | > 10 | > 10 | > 10 | > 10 | > 10 | > 10 |  |
| CCCOC(=O)N1N=C(c2cccc(OC)c2)CC1c1cc(OC)c(OC)c(OC)c1 (stereo unspecified) | > 10 | > 10 | 12.5 | > 10 | > 10 | > 10 |  |
| CCOC(=O)N1N=C(c2cccc(OC)c2)CC1c1cc(OC)c(OC)c(OC)c1 (stereo unspecified) | 7.86 | 5.82 | 9.1 | 4.11 | 7.3 | 5.92 |  |

Source: ChEMBL document CHEMBL4411299, “A class of novel tubulin polymerization inhibitors exert effective anti-tumor activity via mitotic catastrophe” (Eur J Med Chem, 2019)
